For data set [1], the system named is Oryza sativa. The experiment in a line: Toxicity in two leaf stage of Oryza sativa var. Nihonbare (rice) assessed as dose required to selectivity to Oryza sativa. In kind it is organism-based. The note with it: in vivo.
The test system of data set [2] is Sagittaria pygmaea. The experiment in a line: Herbicidal activity against Sagittaria pygmaea assessed as dose required to cause sufficient herbicidal activity after 5 to 7 days. Type of data set: functional.
The subject of data set [3] is Echinochloa oryzicola. The experiment in a line: Herbicidal activity against Echinochloa oryzicola assessed as dose required to cause sufficient herbicidal activity. In kind it is functional.
Data set [4] relates to Schoenoplectiella juncoides. Kind of data set: Herbicidal activity against Schoenoplectiella juncoides assessed as dose required to cause sufficient herbicidal activity after 5 to 7 days. Type of data set: functional.

Molecules are shown by their SMILES.

Take `COc1nc(NC(=O)NS(=O)(=O)c2csnc2COCCF)nc(OC)n1`: the MED in data set [1] is given as > 0.313 g/acre; in data set [2], 0.313 g/acre; in data set [3] it was 5 g/acre; in data set [4] it was 1.25 g/acre.
Turning to `COc1nc(NC(=O)NS(=O)(=O)c2ccoc2COCCF)nc(OC)n1`, the MED in data set [1] is given as 0.313 g/acre; in data set [2], 0.156 g/acre; in data set [3] it was 1.25 g/acre; in data set [4] it was 0.625 g/acre.
The like results for `COc1nc(NC(=O)NS(=O)(=O)c2scnc2COCCF)nc(OC)n1` were, in that order, 2.5 g/acre, 2.5 g/acre, 2.5 g/acre and 2.5 g/acre.
Regarding `COc1nc(NC(=O)NS(=O)(=O)c2snc(C)c2COCCF)nc(OC)n1`, the MED in data set [1] worked out at 2.5 g/acre; in data set [2] it was 1.25 g/acre; in data set [3], 1.25 g/acre; in data set [4], 1.25 g/acre.
Regarding `COc1nc(NC(=O)NS(=O)(=O)c2ccccc2COCCF)nc(OC)n1`, the MED was determined as 2.5 g/acre in data set [1], 10 g/acre in data set [2], 40 g/acre in data set [3] and 40 g/acre in data set [4].
With `COc1nc(NC(=O)NS(=O)(=O)c2ccc3ccccc3c2COCCF)nc(OC)n1`, the MED in data set [1] is < 2.5 g/acre; in data set [2], <2.5 g/acre; in data set [3] it was <2.5 g/acre; in data set [4] it was <2.5 g/acre.
`COc1nc(NC(=O)NS(=O)(=O)c2sc3ccccc3c2COCCF)nc(OC)n1`: the MED in data set [1] was < 2.5 g/acre; in data set [2], <2.5 g/acre; in data set [3], <2.5 g/acre; in data set [4], <2.5 g/acre.
In the case of `COc1nc(NC(=O)NS(=O)(=O)Cc2sccc2COCCF)nc(OC)n1`, the MED is listed as < 2.5 g/acre in data set [1], 20 g/acre in data set [2], 80 g/acre in data set [3] and 20 g/acre in data set [4].
`COc1cc(OC)nc(NC(=O)NS(=O)(=O)c2sccc2COCC(F)F)n1`: the MED in data set [1] came out at 0.312 g/acre; in data set [2], 0.0391 g/acre; in data set [3], 1.25 g/acre; in data set [4] it was 0.0781 g/acre.
The like results for `COc1cc(OC)nc(NC(=O)NS(=O)(=O)c2sccc2COCCF)n1` were, in that order, 0.0781 g/acre, 0.0391 g/acre, 0.313 g/acre and 0.0391 g/acre.
In the case of `COc1cc(C)nc(NC(=O)NS(=O)(=O)c2sccc2COCCF)n1`, the MED in data set [1] was found to be 0.156 g/acre; in data set [2], 0.0391 g/acre; in data set [3] it was 0.0195 g/acre; in data set [4], 0.0391 g/acre.
Turning to `COc1cc(Cl)nc(NC(=O)NS(=O)(=O)c2sccc2COCCF)n1`, the MED is given as 0.625 g/acre in data set [1], 0.313 g/acre in data set [2], 0.156 g/acre in data set [3] and 0.156 g/acre in data set [4].
Consider `COc1cc(OCC(F)(F)F)nc(NC(=O)NS(=O)(=O)c2sccc2COCCF)n1`, for which the MED in data set [1] turned out to be 5 g/acre; in data set [2] it was 2.5 g/acre; in data set [3] it was 20 g/acre; in data set [4] it was 10 g/acre.
Turning to `O=C(Nc1nc(OC(F)F)cc(OC(F)F)n1)NS(=O)(=O)c1sccc1COCCF`, the MED in data set [1], in data set [2], in data set [3] and in data set [4] was 5 g/acre throughout.
Turning to `COc1nc(C)nc(NC(=O)NS(=O)(=O)c2sccc2COCCF)n1`, the MED is recorded as 0.0781 g/acre in data set [1], 0.625 g/acre in data set [2], 0.313 g/acre in data set [3] and 0.313 g/acre in data set [4].
As to `C#CCOCc1ccsc1S(=O)(=O)NC(=O)Nc1nc(OC)cc(OC)n1`, the MED is given as 0.156 g/acre in data set [1], 0.0391 g/acre in data set [2], 0.625 g/acre in data set [3] and 0.0781 g/acre in data set [4].
Taken in the same sequence, the figures for `COc1cc(OC)nc(NC(=O)NS(=O)(=O)c2sccc2COCC(Cl)(Cl)Cl)n1` were 1.25 g/acre, 2.5 g/acre, 5 g/acre and 2.5 g/acre.
Consider `COc1cc(OC)nc(NC(=O)NS(=O)(=O)c2sccc2COCC(F)(F)F)n1`, for which the MED in data set [1] is 1.25 g/acre; in data set [2], 0.156 g/acre; in data set [3], 2.5 g/acre; in data set [4] it was 0.156 g/acre.
On to `COc1cc(OC)nc(NC(=O)NS(=O)(=O)c2sccc2COCC(F)(F)C(F)(F)F)n1`, for which the MED in data set [1] stood at 0.625 g/acre; in data set [2], 2.5 g/acre; in data set [3], 5 g/acre; in data set [4] it was 1.25 g/acre.
For `COc1cc(OC)nc(NC(=O)NS(=O)(=O)c2sccc2COCC(F)(F)C(F)(F)C(F)(F)F)n1`, the MED is listed as 0.625 g/acre in data set [1], 10 g/acre in data set [2], 10 g/acre in data set [3] and 20 g/acre in data set [4].
Turning to `COc1cc(OC)nc(NC(=O)NS(=O)(=O)c2sccc2COC(C)(C)C(F)(F)F)n1`, the MED in data set [1] is on record as 2.5 g/acre; in data set [2], 2.5 g/acre; in data set [3], 20 g/acre; in data set [4], 1.25 g/acre.
On to `COc1cc(OC)nc(NC(=O)NS(=O)(=O)c2sccc2COCCCF)n1`, for which the MED in data set [1] came out at 0.625 g/acre; in data set [2] it was 0.156 g/acre; in data set [3], 0.313 g/acre; in data set [4], 0.313 g/acre.
`COc1cc(OC)nc(NC(=O)NS(=O)(=O)c2sccc2COCC2CCCO2)n1` (stereo unspecified): the MED in data set [1] is recorded as 0.625 g/acre; in data set [2], 10 g/acre; in data set [3] it was 5 g/acre; in data set [4] it was 5 g/acre.
Take `CCN(C)Cc1ccsc1S(=O)(=O)NC(=O)Nc1nc(OC)cc(OC)n1`: the MED in data set [1] is recorded as 20 g/acre; in data set [2], 5 g/acre; in data set [3], 20 g/acre; in data set [4] it was 10 g/acre.
`COC(=O)NCc1ccsc1S(=O)(=O)NC(=O)Nc1nc(OC)cc(OC)n1`: the MED was determined as 2.5 g/acre in data set [1], 0.313 g/acre in data set [2], 20 g/acre in data set [3] and 1.25 g/acre in data set [4].
Taken in the same sequence, the figures for `CNC(=O)NCc1ccsc1S(=O)(=O)NC(=O)Nc1nc(OC)cc(OC)n1` were 2.5 g/acre, 10 g/acre, 10 g/acre and 20 g/acre.
The like results for `COc1cc(OC)nc(NC(=O)NS(=O)(=O)c2sccc2CNC(=O)CCl)n1` were, in that order, 5 g/acre, 5 g/acre, 10 g/acre and 10 g/acre.
The like results for `COc1cc(OC)nc(NC(=O)NS(=O)(=O)c2sccc2Cn2cc(C(F)(F)F)ccc2=O)n1` were, in that order, 40 g/acre, 40 g/acre, 40 g/acre and 40 g/acre.
For the compound `CCOCc1ccsc1S(=O)(=O)NC(=O)Nc1nc(OC)cc(OC)n1`, the MED in data set [1] was 0.156 g/acre; in data set [2], 0.0391 g/acre; in data set [3], 0.313 g/acre; in data set [4], 0.0391 g/acre.
Take `C=CCOCc1ccsc1S(=O)(=O)NC(=O)Nc1nc(OC)cc(OC)n1`: the MED in data set [1] came to 0.313 g/acre; in data set [2] it was 0.156 g/acre; in data set [3] it was 0.625 g/acre; in data set [4], 0.156 g/acre.
In the case of `COc1cc(OC)nc(NC(=O)NS(=O)(=O)c2sccc2CSC#N)n1`, the MED in data set [1] came out at 0.313 g/acre; in data set [2], 0.625 g/acre; in data set [3] it was 1.25 g/acre; in data set [4], 1.25 g/acre.
`COC(=O)Cc1ccsc1S(=O)(=O)NC(=O)Nc1nc(OC)cc(OC)n1`: the MED came out at 0.156 g/acre in data set [1], 0.313 g/acre in data set [2], 1.25 g/acre in data set [3] and 1.25 g/acre in data set [4].
`COc1cc(OC)nc(NC(=O)NS(=O)(=O)c2sccc2COc2ccccc2)n1`: the MED in data set [1] turned out to be 0.625 g/acre; in data set [2], 0.313 g/acre; in data set [3], 2.5 g/acre; in data set [4], 1.25 g/acre.
On to `COc1cc(OC)nc(NC(=O)NS(=O)(=O)c2sccc2COc2cccc(C(F)(F)F)c2)n1`, for which the MED in data set [1] is recorded as 0.625 g/acre; in data set [2], 20 g/acre; in data set [3] it was 5 g/acre; in data set [4], 20 g/acre.

(Values after ChEMBL document CHEMBL3045621, “Synthesis and Structure-activity Relationships of Herbicidal Thiophene Sulfonylurea Compounds” (J Pestic Sci, 1997).)
